Measured values as given in patent US12240862B2, “Inhibitors of peptidylarginine deiminases” (Gilead Sciences, Inc., priority 2020, dated 2025).
pIC50: −log10 of the molar value.

Molecular target: T1, human PAD4 (Homo sapiens, UniProt Q9UM07)
T1 construct: human PAD4 (NM_012387), A2P663, was PCR amplified; His-SUMO (N, cleaved yes); made in house; host or cells: E. coli BL21(DE3)
Assay: In vitro PAD4 BAEE biochemical assay
Settings: human PAD4, BAEE substrate; 5 nM PAD4, 2 mM calcium chloride, 3 mM BAEE; geometric mean of multiple experiments
How it was run: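 Ammonia generated from BAEE serves as the readout, measured by o-phthalaldehyde after EDTA termination. Final conditions: 5 nM human PAD4 (SUMO tag cleaved), 2 mM CaCl2, 3 mM BAEE, pH 7.6 MOPS buffer, 25 °C for 2 h following a 30-min compound preincubation.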

T1 sequence (Q9UM07 2-663): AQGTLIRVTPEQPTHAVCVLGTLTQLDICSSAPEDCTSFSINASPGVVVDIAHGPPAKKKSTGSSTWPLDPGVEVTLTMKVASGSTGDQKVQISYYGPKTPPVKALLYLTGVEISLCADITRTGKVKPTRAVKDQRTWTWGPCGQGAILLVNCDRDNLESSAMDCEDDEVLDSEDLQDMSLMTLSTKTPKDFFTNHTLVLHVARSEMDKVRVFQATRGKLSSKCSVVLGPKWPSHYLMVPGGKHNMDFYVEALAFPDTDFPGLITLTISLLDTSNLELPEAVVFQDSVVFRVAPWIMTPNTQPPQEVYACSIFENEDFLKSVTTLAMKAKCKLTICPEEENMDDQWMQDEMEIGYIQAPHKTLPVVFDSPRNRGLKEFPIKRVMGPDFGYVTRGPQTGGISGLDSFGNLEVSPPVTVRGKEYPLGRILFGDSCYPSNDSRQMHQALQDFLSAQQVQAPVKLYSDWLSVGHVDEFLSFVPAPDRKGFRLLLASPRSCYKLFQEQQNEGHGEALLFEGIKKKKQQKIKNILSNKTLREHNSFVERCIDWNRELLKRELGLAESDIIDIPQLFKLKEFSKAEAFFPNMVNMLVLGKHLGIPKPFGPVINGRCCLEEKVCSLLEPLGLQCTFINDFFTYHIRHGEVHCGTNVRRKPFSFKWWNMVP

| pIC50 | Compound |
| --- | --- |
| 6.64 | COc1cc(C(=O)N2[C@H]3CC[C@@H]2[C@H](N)C3)cc2nc(-c3cc4ccc(C5CCN(C(=O)N6CCCC6)CC5)nc4n3CC3CC3)c(C)n12 [Example 525, [(1~{R},2~{R},4~{S})-2-amino-7-azabicyclo [2.2.1]heptan-7-yl]-[2-[1-(cyclopropylmethyl)-6-[1-(pyrrolidine-1-carbonyl)piperidin-4-yl]pyrrolo [2,3-b]pyridin-2-yl]-5-methoxy-3-methylimidazo [1,2-a]pyridin-7-yl]methanone] |
| 6.66 | COc1cc(C(=O)N2[C@H]3CC[C@@H]2[C@H](N)C3)cc2nc(-c3cc4ccc(C5CCN(C(C)=O)CC5)nc4n3CC3CC3)c(C)n12 [Example 527, 1-[4-[2-[7-[(1~{R},2~{R}, 4~{S})-2-amino-7-azabicyclo[2.2.1]heptane-7-carbonyl]-5-methoxy-3-methylimidazo[1,2-a]pyridin-2-yl]-1-(cyclopropylmethyl)pyrrolo [2,3-b]pyridin-6-yl]piperidin-1-yl] ethenone] |
| 5.83 | COc1cc(C(=O)N2CCC[C@@H](N)C2)cc2nc(-c3cc4ccc(CCC(=O)N(C)C)nc4n3CC3CC3)c(C)n12 [Example 532, 3-[2-[7-[(3~{R})-3-aminopiperidine-1-carbonyl]-5-methoxy-3-methylimidazo[1,2-a]pyridin-2-yl]-1-(cyclopropylmethyl)pyrrolo[2,3-b]pyridin-6-yl]-~{N},~{N}-dimethylpropanamide] |
| 6.85 | COc1cc(C(=O)N2CCC[C@@H](N)C2)cc2nc(-c3cc4ccc([C@H](C)CC(=O)N(C)C)nc4n3CC3CC3)c(C)n12 [Example 534, (3~{R})-3-[2-[7-[(3~{R})-3-aminopiperidine-1-carbonyl]-5-methoxy-3-methylimidazo[1,2-a]pyridin-2-yl]-1-(cyclopropylmethyl)pyrrolo[2,3-b]pyridin-6-yl]-~{N},~{N}-dimethylbutanamide] |
| 6.89 | COc1cc(C(=O)N2CCC[C@@H](N)C2)cc2nc(-c3cc4ccc(C(C)CC(=O)N(C)C)nc4n3CC3CC3)c(C)n12 (stereo partly drawn) [Example 536, 3-[2-[7-[(3~{R})-3-aminopiperidine-1-carbonyl]-5-methoxy-3-methylimidazo[1,2-a]pyridin-2-yl]-1-(cyclopropylmethyl)pyrrolo[2,3-b]pyridin-6-yl]-~{N},~{N}-dimethylbutanamide] |
| 6.24 | COc1cc(C(=O)N2CCC[C@@H](N)C2)cc2nc(-c3cc4ccc(C(C)n5ccnn5)nc4n3CC3CC3)c(C)n12 (stereo partly drawn) [Example 537, [(3~{R})-3-aminopiperidin-1-yl]-[2-[1-(cyclopropylmethyl)-6-[1-(triazol-1-yl)ethyl]pyrrolo[2,3-b]pyridin-2-yl]-5-methoxy-3-methylimidazo[1,2-a]pyridin-7-yl]methanone] |
| 6.76 | COc1cc(C(=O)N2[C@H]3CC[C@@H]2[C@H](N)C3)cc2nc(-c3cc4ccc(C(C)(C)CC(=O)N5CC(F)(F)C5)nc4n3CC3CC3)c(C)n12 [Example 538, 3-[2-[7-[(1~{R},2~{R}, 4~{S})-2-amino-7-azabicyclo[2.2.1]heptane-7-carbonyl]-5-methoxy-3-methylimidazo[1,2-a]pyridin-2-yl]-1-(cyclopropylmethyl)pyrrolo [2,3-b]pyridin-6-yl]-1-(3,3-difluoroazetidin-1-yl)-3-methylbutan-1-one] |
| 7.23 | CNC(=O)CC(C)(C)c1ccc2cc(-c3nc4cc(C(=O)N5[C@H]6CC[C@@H]5[C@H](N)C6)cc(OC)n4c3C)n(CC3CC3)c2n1 [Example 539, 3-[2-[7-[(1~{R},2~{R}, 4~{S})-2-amino-7-azabicyclo[2.2.1]heptane-7-carbonyl]-5-methoxy-3-methylimidazo[1,2-a]pyridin-2-yl]-1-(cyclopropylmethyl)pyrrolo[2,3-b]pyridin-6-yl]-~{N},3-dimethylbutanamide] |
| 6.57 | CCCC(CC(=O)N1CCCC1)c1ccc2cc(-c3nc4cc(C(=O)N5[C@H]6CC[C@@H]5[C@H](N)C6)cc(OC)n4c3C)n(CC3CC3)c2n1 (stereo partly drawn) [Example 541, 3-[2-[7-[(1~{R},2~{R}, 4~{S})-2-amino-7-azabicyclo[2.2.1]heptane-7-carbonyl]-5-methoxy-3-methylimidazo[1,2-a]pyridin-2-yl]-1-(cyclopropylmethyl)pyrrolo [2,3-b]pyridin-6-yl]-1-pyrrolidin-1-ylhexan-1-one] |
| 6.92 | COc1cc(C(=O)N2[C@H]3CC[C@@H]2[C@H](N)C3)cc2nc(-c3cc4ccc(C(CC(=O)N5CCCC5)C5CC5)nc4n3CC3CC3)c(C)n12 (stereo partly drawn) [Example 542, 3-[2-[7-[(1~{R},2~{R}, 4~{S})-2-amino-7-azabicyclo[2.2.1]heptane-7-carbonyl]-5-methoxy-3-methylimidazo[1,2-a]pyridin-2-yl]-1-(cyclopropylmethyl)pyrrolo[2,3-b]pyridin-6-yl]-3-cyclopropyl-1-pyrrolidin-1-ylpropan-1-one] |
| 6.44 | COc1cc(C(=O)N2[C@H]3CC[C@@H]2[C@H](N)C3)cc2nc(-c3cc4ccc(C5CCCCN5C(=O)N5CCCC5)nc4n3CC3CC3)c(C)n12 (stereo partly drawn) [Example 544, [(1~{R},2~{R},4~{S})-2-amino-7-azabicyclo [2.2.1]heptan-7-yl]-[2-[1-(cyclopropylmethyl)-6-[1-(pyrrolidine-1-carbonyl)piperidin-2-yl]pyrrolo [2,3-b]pyridin-2-yl]-5-methoxy-3-methylimidazo [1,2-a]pyridin-7-yl] methanone] |

Second part, the molecule before the results:

| Compound | pIC50 |
| --- | --- |
| CNC(=O)CC(C)c1ccc2cc(-c3nc4cc(C(=O)N5[C@H]6CC[C@@H]5[C@H](N)C6)cc(OC)n4c3C)n(CC3CC3)c2n1 (stereo partly drawn) [Example 524, 3-[2-[7-[(1~{R},2~{R}, 4~{S})-2-amino-7-azabicyclo[2.2.1]heptane-7-carbonyl]-5-methoxy-3-methylimidazo[1,2-a]pyridin-2-yl]-1-(cyclopropylmethyl)pyrrolo [2,3-b]pyridin-6-yl]-~{N}-methylbutanamide] | 7.10 |
| COc1cc(C(=O)N2[C@H]3CC[C@@H]2[C@H](N)C3)cc2nc(-c3cc4ccc(C5CCN(C(=O)C(C)(C)C)CC5)nc4n3CC3CC3)c(C)n12 [Example 526, 1-[4-[2-[7-[(1~{R},2~{R}, 4~{S})-2-amino-7-azabicyclo[2.2.1]heptane-7-carbonyl]-5-methoxy-3-methylimidazo[1,2-a]pyridin-2-yl]-1-(cyclopropylmethyl)pyrrolo [2,3-b]pyridin-6-yl]piperidin-1-yl]-2,2-dimethylpropan-1-one] | 6.34 |
| COc1cc(C(=O)N2[C@H]3CC[C@@H]2[C@H](N)C3)cc2nc(-c3cc4ccc(C(C)CC(=O)N5CCCC5)nc4n3CC3CC3)c(C)n12 (stereo partly drawn) [Example 528, 3-[2-[7-[(1~{R},2~{R}, 4~{S})-2-amino-7-azabicyclo[2.2.1]heptane-7-carbonyl]-5-methoxy-3-methylimidazo[1,2-a]pyridin-2-yl]-1-(cyclopropylmethyl)pyrrolo [2,3-b]pyridin-6-yl]-1-pyrrolidin-1-ylbutan-1-one] | 7.19 |
| COc1cc(C(=O)N2[C@H]3CC[C@@H]2[C@H](N)C3)cc2nc(-c3cc4ccc(C5CCN(C(=O)N6CCCC6)C5)nc4n3CC3CC3)c(C)n12 (stereo partly drawn) [Example 529, [(1~{R},2~{R},4~{S})-2-amino-7-azabicyclo [2.2.1]heptan-7-yl]-[2-[1-(cyclopropylmethyl)-6-[1-(pyrrolidine-1-carbonyl)pyrrolidin-3-yl]pyrrolo [2,3-b]pyridin-2-yl]-5-methoxy-3-methylimidazo [1,2-a]pyridin-7-yl] methanone] | 6.82 |
| COc1cc(C(=O)N2[C@H]3CC[C@@H]2[C@H](N)C3)cc2nc(-c3cc4ccc(C5CCN(C(=O)C(C)(C)C)C5)nc4n3CC3CC3)c(C)n12 (stereo partly drawn) [Example 530, 1-[3-[2-[7-[(1~{R},2~{R}, 4~{S})-2-amino-7-azabicyclo[2.2.1]heptane-7-carbonyl]-5-methoxy-3-methylimidazo[1,2-a]pyridin-2-yl]-1-(cyclopropylmethyl)pyrrolo [2,3-b]pyridin-6-yl]pyrrolidin-1-yl]-2,2-dimethylpropan-1-one] | 6.56 |
| COc1cc(C(=O)N2[C@H]3CC[C@@H]2[C@H](N)C3)cc2nc(-c3cc4ccc(C5CCN(C(C)=O)C5)nc4n3CC3CC3)c(C)n12 (stereo partly drawn) [Example 531] | 6.87 |
| COc1cc(C(=O)N2CCC[C@@H](N)C2)cc2nc(-c3cc4ccc(C5CC5C(=O)N(C)C)nc4n3CC3CC3)c(C)n12 (stereo partly drawn) [Example 533, 2-[2-[7-[(3~{R})-3-aminopiperidine-1-carbonyl]-5-methoxy-3-methylimidazo[1,2-a]pyridin-2-yl]-1-(cyclopropylmethyl)pyrrolo[2,3-b]pyridin-6-yl]-~{N},~{N}-dimethylcyclopropane-1-carboxamide] | 6.03 |
| COc1cc(C(=O)N2CCC[C@@H](N)C2)cc2nc(-c3cc4ccc([C@@H](C)CC(=O)N(C)C)nc4n3CC3CC3)c(C)n12 [Example 535, (3~{S})-3-[2-[7-[(3~{R})-3-aminopiperidine-1-carbonyl]-5-methoxy-3-methylimidazo[1,2-a]pyridin-2-yl]-1-(cyclopropylmethyl)pyrrolo [2,3-b]pyridin-6-yl]-~{N},~{N}-dimethylbutanamide] | 6.52 |
| CCC(CC(=O)N1CCCC1)c1ccc2cc(-c3nc4cc(C(=O)N5[C@H]6CC[C@@H]5[C@H](N)C6)cc(OC)n4c3C)n(CC3CC3)c2n1 (stereo partly drawn) [Example 540, 3-[2-[7-[(1~{R},2~{R}, 4~{S})-2-amino-7-azabicyclo[2.2.1]heptane-7-carbonyl]-5-methoxy-3-methylimidazo[1,2-a]pyridin-2-yl]-1-(cyclopropylmethyl)pyrrolo[2,3-b]pyridin-6-yl]-1-pyrrolidin-1-ylpentan-1-one] | 6.99 |
| COc1cc(C(=O)N2[C@H]3CC[C@@H]2[C@H](N)C3)cc2nc(-c3cc4ccc(C(C)CN5CCOCC5)nc4n3CC3CC3)c(C)n12 (stereo partly drawn) [Example 543, [(1~{R},2~{R},4~{S})-2-amino-7-azabicyclo [2.2.1]heptan-7-yl]-[2-[1-(cyclopropylmethyl)-6-(1-morpholin-4-ylpropan-2-yl)pyrrolo[2,3-b]pyridin-2-yl]-5-methoxy-3-methylimidazo [1,2-a]pyridin-7-yl] methanone] | 6.97 |
